Results from US11667809B2, “Adhesion promoters and compositions for containers and other articles” (SWIMC LLC, priority 2017, dated 2023).
Where two headings read alike, the source gives them in different places.

What was measured:
human estrogen receptor [1] = molecular target: T1, human estrogen receptor (Homo sapiens, UniProt P03372)
T1 sequence (P03372 1-595): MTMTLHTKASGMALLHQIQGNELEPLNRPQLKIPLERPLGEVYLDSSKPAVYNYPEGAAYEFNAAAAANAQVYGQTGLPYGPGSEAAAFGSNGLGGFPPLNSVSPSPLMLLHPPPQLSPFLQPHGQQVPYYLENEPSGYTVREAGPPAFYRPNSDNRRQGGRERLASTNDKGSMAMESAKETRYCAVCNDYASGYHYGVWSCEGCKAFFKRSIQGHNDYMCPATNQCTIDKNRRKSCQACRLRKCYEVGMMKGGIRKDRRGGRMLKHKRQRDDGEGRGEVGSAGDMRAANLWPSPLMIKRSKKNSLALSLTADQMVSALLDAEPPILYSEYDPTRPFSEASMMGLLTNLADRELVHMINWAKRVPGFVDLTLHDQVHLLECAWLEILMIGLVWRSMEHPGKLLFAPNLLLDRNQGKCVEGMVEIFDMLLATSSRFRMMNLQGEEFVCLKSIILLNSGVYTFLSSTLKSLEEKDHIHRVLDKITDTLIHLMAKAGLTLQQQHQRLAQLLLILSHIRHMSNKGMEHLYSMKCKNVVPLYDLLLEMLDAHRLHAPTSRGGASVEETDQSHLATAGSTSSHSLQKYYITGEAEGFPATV
Text: (§1) The MCF-7 assay uses MCF-7, clone WS8, cells to measure whether and to what extent a substance induces cell proliferation via estrogen receptor (ER)-mediated pathways.

human estrogen receptor [2] = molecular target: T1, human estrogen receptor; experiment: in vitro estrogenic activity assay correlated to the MCF-7 cell proliferation assay; conditions: suitable in vitro assay whose results are directly correlated to the MCF-7 assay
Text: as §1

Compound	estrogenic activity (human estrogen receptor [1])	estrogenic activity (human estrogen receptor [2])
Cc1cc(Cc2cc(C)cc(C(C)(C)C)c2O)c(O)c(C(C)(C)C)c1 [2,2′-methylenebis(4-methyl-6-t-butylphenol)]	do not exhibit appreciable estrogenic activity	
CC(C)(C)c1cc(O)c(C(C)(C)C)cc1O [2,5-di-t-butylhydroquinone]	do not exhibit appreciable estrogenic activity	
CC(C)(C)c1cc(Cc2cc(C(C)(C)C)c(O)c(C(C)(C)C)c2)cc(C(C)(C)C)c1O [4,4′-methylenebis(2,6-di-t-butylphenol)]	do not exhibit appreciable estrogenic activity	
Cc1cc(Cc2cc(C)c(O)c(C)c2)cc(C)c1O [4,4′-methylenebis(2,6-dimethylphenol)]		do not exhibit appreciable estrogenic activity
CCCC(c1cc(C(C)(C)C)c(O)cc1C)c1cc(C(C)(C)C)c(O)cc1C [4,4′butylidenebis(2-t-butyl-5-methylphenol)]		do not exhibit appreciable estrogenic activity
